Experimental data: US20220213047A1, “CARBONIC ANHYDRASE INHIBITORS FOR TREATMENT OF NEISSERIA GONORRHOEAE INFECTION” (Purdue Research Foundation, priority 2021, published 2022)

Tests used:
N. gonorrhoeae [1] = assay: MIC by agar dilution on a larger panel of N. gonorrhoeae strains; type: cell-based, Neisseria gonorrhoeae; details: Neisseria gonorrhoeae
Description: (§1) These tests were performed in normal culture conditions with standard CO2 levels and in CO2 (5% in incubator) conditions.

N. gonorrhoeae [2] = assay: MIC against N. gonorrhoeae clinical isolates, normal and CO2 conditions; type: cell-based; details: Neisseria gonorrhoeae
Description: as §1

[3] = strain panel of Table 9, CO2 (5% CO2 containing air)

NS(=O)(=O)c1cc(Cl)c(Cl)c(S(N)(=O)=O)c1 [Dichlorphenamide]
4 µg/mL: MIC (N. gonorrhoeae [1]; N. gonorrhoeae 167, Non CO2 (ambient air), read-out: MIC) | MIC (N. gonorrhoeae [1]; N. gonorrhoeae 176, Non CO2 (ambient air), read-out: MIC) | MIC (N. gonorrhoeae [1]; N. gonorrhoeae 177, Non CO2 (ambient air), read-out: MIC) | MIC (N. gonorrhoeae [1]; N. gonorrhoeae 184, Non CO2 (ambient air), read-out: MIC) | MIC (N. gonorrhoeae [1]; N. gonorrhoeae 191, Non CO2 (ambient air), read-out: MIC) | MIC (N. gonorrhoeae [1]; N. gonorrhoeae 193, Non CO2 (ambient air), read-out: MIC) | MIC (N. gonorrhoeae [1]; N. gonorrhoeae 194, Non CO2 (ambient air), read-out: MIC) | MIC (N. gonorrhoeae [1]; N. gonorrhoeae 197, Non CO2 (ambient air), read-out: MIC) | MIC (N. gonorrhoeae [1]; N. gonorrhoeae 206, Non CO2 (ambient air), read-out: MIC) | MIC (N. gonorrhoeae [1]; N. gonorrhoeae 207, Non CO2 (ambient air), read-out: MIC) | MIC (N. gonorrhoeae [1]; N. gonorrhoeae 208, Non CO2 (ambient air), read-out: MIC) | MIC (N. gonorrhoeae [1]; N. gonorrhoeae 210, Non CO2 (ambient air), read-out: MIC) | MIC50 (N. gonorrhoeae [1]; strain panel of Table 9, Non CO2 (ambient air)) | MIC (N. gonorrhoeae [1]; strain panel of Table 9, Non CO2 (ambient air), read-out: Modal MIC) | MIC (N. gonorrhoeae [2]; N. gonorrhoeae 194, Non CO2 environment)
32 µg/mL: MIC (N. gonorrhoeae [1]; N. gonorrhoeae 200, Non CO2 (ambient air), read-out: MIC) | MIC (N. gonorrhoeae [1]; N. gonorrhoeae 212, Non CO2 (ambient air), read-out: MIC)
1 µg/mL: MIC (N. gonorrhoeae [1]; N. gonorrhoeae 171, Non CO2 (ambient air), read-out: MIC) | MIC (N. gonorrhoeae [1]; N. gonorrhoeae 178, Non CO2 (ambient air), read-out: MIC) | MIC (N. gonorrhoeae [1]; N. gonorrhoeae 183, Non CO2 (ambient air), read-out: MIC) | MIC (N. gonorrhoeae [1]; N. gonorrhoeae 188, Non CO2 (ambient air), read-out: MIC) | MIC (N. gonorrhoeae [1]; N. gonorrhoeae 196, Non CO2 (ambient air), read-out: MIC) | MIC (N. gonorrhoeae [1]; N. gonorrhoeae 198, Non CO2 (ambient air), read-out: MIC) | MIC (N. gonorrhoeae [1]; N. gonorrhoeae 203, Non CO2 (ambient air), read-out: MIC) | MIC (N. gonorrhoeae [1]; N. gonorrhoeae 209, Non CO2 (ambient air), read-out: MIC) | MIC (N. gonorrhoeae [1]; N. gonorrhoeae 211, Non CO2 (ambient air), read-out: MIC) | MIC (N. gonorrhoeae [1]; N. gonorrhoeae 214, Non CO2 (ambient air), read-out: MIC)
64 µg/mL: MIC (N. gonorrhoeae [1]; N. gonorrhoeae 170, Non CO2 (ambient air), read-out: MIC)
2 µg/mL: MIC (N. gonorrhoeae [1]; N. gonorrhoeae 165, Non CO2 (ambient air), read-out: MIC) | MIC (N. gonorrhoeae [1]; N. gonorrhoeae 173, Non CO2 (ambient air), read-out: MIC) | MIC (N. gonorrhoeae [1]; N. gonorrhoeae 174, Non CO2 (ambient air), read-out: MIC) | MIC (N. gonorrhoeae [2]; N. gonorrhoeae 178, Non CO2 environment)
128 µg/mL: MIC (N. gonorrhoeae [1]; N. gonorrhoeae 177, CO2 (5% CO2 containing air), read-out: MIC) | MIC (N. gonorrhoeae [1]; N. gonorrhoeae 181, CO2 (5% CO2 containing air), read-out: MIC) | MIC (N. gonorrhoeae [1]; N. gonorrhoeae 183, CO2 (5% CO2 containing air), read-out: MIC) | MIC (N. gonorrhoeae [1]; N. gonorrhoeae 193, CO2 (5% CO2 containing air), read-out: MIC) | MIC (N. gonorrhoeae [1]; N. gonorrhoeae 194, CO2 (5% CO2 containing air), read-out: MIC)
8 µg/mL: MIC (N. gonorrhoeae [1]; N. gonorrhoeae 166, Non CO2 (ambient air), read-out: MIC) | MIC (N. gonorrhoeae [1]; N. gonorrhoeae 179, Non CO2 (ambient air), read-out: MIC) | MIC (N. gonorrhoeae [1]; N. gonorrhoeae 180, Non CO2 (ambient air), read-out: MIC) | MIC (N. gonorrhoeae [1]; N. gonorrhoeae 181, Non CO2 (ambient air), read-out: MIC) | MIC (N. gonorrhoeae [1]; N. gonorrhoeae 185, Non CO2 (ambient air), read-out: MIC) | MIC (N. gonorrhoeae [1]; N. gonorrhoeae 186, Non CO2 (ambient air), read-out: MIC) | MIC (N. gonorrhoeae [2]; N. gonorrhoeae 181, Non CO2 environment)
16 µg/mL: MIC (N. gonorrhoeae [1]; N. gonorrhoeae 175, Non CO2 (ambient air), read-out: MIC) | MIC (N. gonorrhoeae [1]; N. gonorrhoeae 182, Non CO2 (ambient air), read-out: MIC) | MIC (N. gonorrhoeae [1]; N. gonorrhoeae 202, Non CO2 (ambient air), read-out: MIC) | MIC (N. gonorrhoeae [1]; N. gonorrhoeae 205, Non CO2 (ambient air), read-out: MIC) | MIC (N. gonorrhoeae [1]; N. gonorrhoeae 213, Non CO2 (ambient air), read-out: MIC) | MIC90 (N. gonorrhoeae [1]; strain panel of Table 9, Non CO2 (ambient air, standard CO2 conditions))
> 64 µg/mL: MIC (N. gonorrhoeae [1]; N. gonorrhoeae 211, CO2 (5% CO2 containing air), read-out: MIC) | MIC (N. gonorrhoeae [2]; N. gonorrhoeae 178, normal growth environment (with CO2)) | MIC (N. gonorrhoeae [2]; N. gonorrhoeae 181, normal growth environment (with CO2)) | MIC (N. gonorrhoeae [2]; N. gonorrhoeae 194, normal growth environment (with CO2))
> 128 µg/mL: MIC (N. gonorrhoeae [1]; N. gonorrhoeae 165, CO2 (5% CO2 containing air), read-out: MIC) | MIC (N. gonorrhoeae [1]; N. gonorrhoeae 166, CO2 (5% CO2 containing air), read-out: MIC) | MIC (N. gonorrhoeae [1]; N. gonorrhoeae 167, CO2 (5% CO2 containing air), read-out: MIC) | MIC (N. gonorrhoeae [1]; N. gonorrhoeae 170, CO2 (5% CO2 containing air), read-out: MIC) | MIC (N. gonorrhoeae [1]; N. gonorrhoeae 171, CO2 (5% CO2 containing air), read-out: MIC) | MIC (N. gonorrhoeae [1]; N. gonorrhoeae 173, CO2 (5% CO2 containing air), read-out: MIC) | MIC (N. gonorrhoeae [1]; N. gonorrhoeae 174, CO2 (5% CO2 containing air), read-out: MIC) | MIC (N. gonorrhoeae [1]; N. gonorrhoeae 175, CO2 (5% CO2 containing air), read-out: MIC) | MIC (N. gonorrhoeae [1]; N. gonorrhoeae 176, CO2 (5% CO2 containing air), read-out: MIC) | MIC (N. gonorrhoeae [1]; N. gonorrhoeae 178, CO2 (5% CO2 containing air), read-out: MIC) | MIC (N. gonorrhoeae [1]; N. gonorrhoeae 179, CO2 (5% CO2 containing air), read-out: MIC) | MIC (N. gonorrhoeae [1]; N. gonorrhoeae 180, CO2 (5% CO2 containing air), read-out: MIC) | MIC (N. gonorrhoeae [1]; N. gonorrhoeae 182, CO2 (5% CO2 containing air), read-out: MIC) | MIC (N. gonorrhoeae [1]; N. gonorrhoeae 184, CO2 (5% CO2 containing air), read-out: MIC) | MIC (N. gonorrhoeae [1]; N. gonorrhoeae 185, CO2 (5% CO2 containing air), read-out: MIC) | MIC (N. gonorrhoeae [1]; N. gonorrhoeae 186, CO2 (5% CO2 containing air), read-out: MIC) | MIC (N. gonorrhoeae [1]; N. gonorrhoeae 188, CO2 (5% CO2 containing air), read-out: MIC) | MIC (N. gonorrhoeae [1]; N. gonorrhoeae 191, CO2 (5% CO2 containing air), read-out: MIC) | MIC (N. gonorrhoeae [1]; N. gonorrhoeae 196, CO2 (5% CO2 containing air), read-out: MIC) | MIC (N. gonorrhoeae [1]; N. gonorrhoeae 197, CO2 (5% CO2 containing air), read-out: MIC) | MIC (N. gonorrhoeae [1]; N. gonorrhoeae 198, CO2 (5% CO2 containing air), read-out: MIC) | MIC (N. gonorrhoeae [1]; N. gonorrhoeae 200, CO2 (5% CO2 containing air), read-out: MIC) | MIC (N. gonorrhoeae [1]; N. gonorrhoeae 202, CO2 (5% CO2 containing air), read-out: MIC) | MIC (N. gonorrhoeae [1]; N. gonorrhoeae 203, CO2 (5% CO2 containing air), read-out: MIC) | MIC (N. gonorrhoeae [1]; N. gonorrhoeae 205, CO2 (5% CO2 containing air), read-out: MIC) | MIC (N. gonorrhoeae [1]; N. gonorrhoeae 206, CO2 (5% CO2 containing air), read-out: MIC) | MIC (N. gonorrhoeae [1]; N. gonorrhoeae 207, CO2 (5% CO2 containing air), read-out: MIC) | MIC (N. gonorrhoeae [1]; N. gonorrhoeae 208, CO2 (5% CO2 containing air), read-out: MIC) | MIC (N. gonorrhoeae [1]; N. gonorrhoeae 209, CO2 (5% CO2 containing air), read-out: MIC) | MIC (N. gonorrhoeae [1]; N. gonorrhoeae 210, CO2 (5% CO2 containing air), read-out: MIC) | MIC (N. gonorrhoeae [1]; N. gonorrhoeae 212, CO2 (5% CO2 containing air), read-out: MIC) | MIC (N. gonorrhoeae [1]; N. gonorrhoeae 213, CO2 (5% CO2 containing air), read-out: MIC) | MIC (N. gonorrhoeae [1]; N. gonorrhoeae 214, CO2 (5% CO2 containing air), read-out: MIC) | MIC50 (N. gonorrhoeae [1]; [3]) | MIC90 (N. gonorrhoeae [1]; [3]) | MIC (N. gonorrhoeae [1]; strain panel of Table 9, CO2 (5% CO2 containing air), read-out: Modal MIC)
